ChEMBL document CHEMBL5543173, “Discovery of a New Anti-Inflammatory Agent from Anemoside B4 Derivatives and Its Therapeutic Effect on Colitis by Targeting Pyruvate Carboxylase” (J Med Chem, 2024)
Active and inactive are the calls of the source. No cut-off for these calls is given here.

Tests used:
[1] = tested on: Mus musculus; assay: Anti-colitis activity in ICR mouse model assessed as decrease in DSS-induced body weight loss at 400 mg/kg, IG treated for 9 days consecutively; assay type: functional, organism-based; settings: time 9.0 day
[2] = tested on: Mus musculus; assay: Anti-colitis activity in ICR mouse model of DSS-induced colitis assessed as decrease in DAI score at 400 mg/kg, IG treated for 9 days consecutively; assay type: functional, organism-based; settings: time 9.0 day
[3] = tested on: Mus musculus; assay: Anti-colitis activity in ICR mouse model assessed as reversal of DSS-induced colon shortening administered intragastrically for 9 days consecutively; assay type: functional, organism-based; settings: route ig, time 9.0 day
[4] = tested on: Mus musculus; assay: Anti-colitis activity in ICR mouse model assessed as reversal of DSS-induced splenomegaly at 400 mg/kg, IG treated for 9 days consecutively; assay type: functional, organism-based; settings: time 9.0 day
[5] = tested on: Mus musculus; assay: Anti-colitis activity in ICR mouse model assessed as reversal of DSS-induced spleen weight at 400 mg/kg, IG treated for 9 days consecutively; assay type: functional, organism-based; settings: time 9.0 day
[6] = tested on: Mus musculus; assay: Anti-colitis activity in DSS-induced colitis mouse model at 20 to 40 mg/kg; assay type: functional, organism-based; settings: dose 20-40 mg/kg
[7] = biological target: T1, Pyruvate carboxylase, mitochondrial (Homo sapiens, UniProt P11498); assay: Inhibition of pyruvate carboxylase (unknown origin) by NADH-malate dehydrogenase based spectrophotometry
T1 sequence (P11498 whole entry): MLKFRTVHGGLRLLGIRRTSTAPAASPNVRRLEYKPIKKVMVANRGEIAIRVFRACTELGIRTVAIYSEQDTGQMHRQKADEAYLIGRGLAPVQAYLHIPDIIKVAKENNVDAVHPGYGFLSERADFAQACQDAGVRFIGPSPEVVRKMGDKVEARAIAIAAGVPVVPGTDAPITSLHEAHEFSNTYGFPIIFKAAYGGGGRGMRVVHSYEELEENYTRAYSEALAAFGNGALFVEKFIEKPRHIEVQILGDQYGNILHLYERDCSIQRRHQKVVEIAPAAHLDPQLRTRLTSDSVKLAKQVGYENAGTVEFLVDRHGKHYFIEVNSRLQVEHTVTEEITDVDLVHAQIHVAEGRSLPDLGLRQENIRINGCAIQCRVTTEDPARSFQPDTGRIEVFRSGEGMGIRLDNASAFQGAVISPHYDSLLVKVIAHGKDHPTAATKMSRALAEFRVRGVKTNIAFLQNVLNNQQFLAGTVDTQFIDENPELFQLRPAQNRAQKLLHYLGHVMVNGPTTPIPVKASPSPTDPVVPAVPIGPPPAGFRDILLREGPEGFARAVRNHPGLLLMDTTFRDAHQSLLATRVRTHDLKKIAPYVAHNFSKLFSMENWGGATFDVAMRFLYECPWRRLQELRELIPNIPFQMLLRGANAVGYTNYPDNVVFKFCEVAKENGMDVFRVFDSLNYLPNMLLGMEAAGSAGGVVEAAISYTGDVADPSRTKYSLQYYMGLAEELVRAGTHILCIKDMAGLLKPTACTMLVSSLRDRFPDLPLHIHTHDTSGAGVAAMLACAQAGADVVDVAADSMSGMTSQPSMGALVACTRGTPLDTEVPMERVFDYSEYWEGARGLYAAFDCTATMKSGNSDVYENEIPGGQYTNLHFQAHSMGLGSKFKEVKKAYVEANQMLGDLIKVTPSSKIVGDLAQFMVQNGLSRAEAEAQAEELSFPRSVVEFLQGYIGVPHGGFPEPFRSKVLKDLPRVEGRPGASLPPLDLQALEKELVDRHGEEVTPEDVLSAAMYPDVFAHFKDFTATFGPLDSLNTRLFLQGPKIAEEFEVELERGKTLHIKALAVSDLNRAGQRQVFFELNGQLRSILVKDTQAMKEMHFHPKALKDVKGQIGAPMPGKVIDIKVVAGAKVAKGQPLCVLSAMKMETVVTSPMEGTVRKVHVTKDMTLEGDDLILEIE

[8] = tested on: THP-1; assay: cells; settings: Homo sapiens, THP-1, 24 h
[9] = tested on: THP-1; assay: Anti-inflammatory activity in LPS-treated human THP-1 cells assessed as decrease in phosphorylated I-kappaB-alpha level at 10 uM pretreated for 1 hr followed by LPS treatment for 6 hrs by Western blot analysis; assay type: functional, cell-based; settings: time 7.0 hrs
[10] = Tmax in ICR mouse at 15 mg/kg, IG measured for 12 hrs by LC-MS/MS analysis; assay type: ADME, organism-based; settings: in vivo, po
[11] = Half life in ICR mouse at 15 mg/kg, IG measured for 12 hrs by LC-MS/MS analysis; assay type: ADME, organism-based; settings: in vivo, po, 15 mg/kg, 12 h
[12] = Cmax in ICR mouse at 15 mg/kg, IG measured for 12 hrs by LC-MS/MS analysis; assay type: ADME, organism-based; settings: in vivo, po
[13] = AUC (0 to t) in ICR mouse at 15 mg/kg, IG measured for 12 hrs by LC-MS/MS analysis; assay type: ADME, organism-based; settings: in vivo, po
[14] = MRT (0 to t) in ICR mouse at 15 mg/kg, IG measured for 12 hrs by LC-MS/MS analysis; assay type: ADME, organism-based; settings: in vivo, po
[15] = Tmax in colon of ICR mouse at 15 mg/kg, IG measured for 12 hrs by LC-MS/MS analysis; assay type: ADME, organism-based; settings: po
[16] = Half life in colon of ICR mouse at 15 mg/kg, IG measured for 12 hrs by LC-MS/MS analysis; assay type: ADME, organism-based; settings: po
[17] = Cmax in colon of ICR mouse at 15 mg/kg, IG measured for 12 hrs by LC-MS/MS analysis; assay type: ADME, organism-based; settings: po
[18] = AUC (0 to t) in colon of ICR mouse at 15 mg/kg, IG measured for 12 hrs by LC-MS/MS analysis; assay type: ADME, organism-based; settings: po
[19] = MRT (0 to t) in colon of ICR mouse at 15 mg/kg, IG measured for 12 hrs by LC-MS/MS analysis; assay type: ADME, organism-based; settings: po

With `Nc1ccc(O)c(C(=O)O)c1` the Activity [1] was “Active”, the Activity [2] was “Active” and the Activity [3] was “Dose-Dependent Effect”. For the same compound, the Activity [4] was “Active” and the Activity [5] was “Active”.
With `C=C(C)[C@@H]1CC[C@]2(C(=O)O)CC[C@]3(C)[C@H](CC[C@@H]4[C@@]5(C)CC[C@H](O[C@@H]6OC[C@H](O)[C@H](O)[C@H]6O[C@@H]6O[C@@H](C)[C@H](O)[C@@H](O)[C@H]6O)[C@@](C)(CO)[C@@H]5CC[C@]43C)[C@@H]12` the Activity [6] was “inactive”, the IC50 [7] was > 10 µM and the IC50 [8] was ≥ 80 µM.
With `C=C(C)[C@@H]1CC[C@]2(C(=O)NCCCNC(=O)OC(C)(C)C)CC[C@]3(C)[C@H](CC[C@@H]4[C@@]5(C)CC[C@H](O[C@@H]6OC[C@H](O)[C@H](O)[C@H]6O[C@@H]6O[C@@H](C)[C@H](O)[C@@H](O)[C@H]6O)[C@@](C)(CO)[C@@H]5CC[C@]43C)[C@@H]12` the Activity [9] was “Active” and the IC50 [8] was ≥ 80 µM.
In the case of `C=C(C)[C@@H]1CC[C@]2(C(=O)O[C@@H]3O[C@H](CO[C@@H]4O[C@H](CO)[C@@H](O[C@@H]5O[C@@H](C)[C@H](O)[C@@H](O)[C@H]5O)[C@H](O)[C@H]4O)[C@@H](O)[C@H](O)[C@H]3O)CC[C@]3(C)[C@H](CC[C@@H]4[C@@]5(C)CC[C@H](O[C@@H]6OC[C@H](O)[C@H](O)[C@H]6O[C@@H]6O[C@@H](C)[C@H](O)[C@@H](O)[C@H]6O)[C@@](C)(CO)[C@@H]5CC[C@]43C)[C@@H]12`, the Tmax [10] is reported as 0.46 h, the t1/2 [11] is reported as 4.74 h and the Cmax [12] is reported as 0.58 ng/mL. It also gave an AUCt [13] of 2.46 ng·h/mL, an MRT last at 12 h [14] of 5.13 h and a Tmax [15] of 1.92 h. The half-life [16] was 4.65 h, the Cmax [17] was 7.12 ng/mL and the AUC(0-t) at 12 h [18] was 30.2 ng·h/mL. For the same compound, the MRT last at 12 h [19] was 4.38 h and the IC50 [8] was ≥ 80 µM.
In the case of `C=C(C)[C@@H]1CC[C@]2(C(=O)NCCCN3CCOCC3)CC[C@]3(C)[C@H](CC[C@@H]4[C@@]5(C)CC[C@H](O[C@@H]6OC[C@H](O)[C@H](O)[C@H]6O[C@@H]6O[C@@H](C)[C@H](O)[C@@H](O)[C@H]6O)[C@@](C)(CO)[C@@H]5CC[C@]43C)[C@@H]12`, the IC50 [7] is reported as > 1 µM and the IC50 [8] is reported as ≥ 80 µM.
In the case of `C=C(C)[C@@H]1CC[C@]2(C(=O)NCC(=O)OCC)CC[C@]3(C)[C@H](CC[C@@H]4[C@@]5(C)CC[C@H](O[C@@H]6OC[C@H](O)[C@H](O)[C@H]6O[C@@H]6O[C@@H](C)[C@H](O)[C@@H](O)[C@H]6O)[C@@](C)(CO)[C@@H]5CC[C@]43C)[C@@H]12`, the IC50 [7] is reported as > 1 µM and the IC50 [8] is reported as ≥ 80 µM.
For `C=C(C)[C@@H]1CC[C@]2(C(=O)OCOC(C)=O)CC[C@]3(C)[C@H](CC[C@@H]4[C@@]5(C)CC[C@H](O[C@@H]6OC[C@H](O)[C@H](O)[C@H]6O[C@@H]6O[C@@H](C)[C@H](O)[C@@H](O)[C@H]6O)[C@@](C)(CO)[C@@H]5CC[C@]43C)[C@@H]12`, the IC50 [7] was > 1 µM and the IC50 [8] was ≥ 80 µM.
